Where “and” joins values, the source holds several entries; their conditions need not be identical. Identical values can stand only once.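 96-well plates; 48 h exposure; 5 concentrations. Endpoints by linear interpolation between flanking doses. Not reached: highest tested concentration assigned. GI50 is the concentration that inhibits growth by half. At the TGI there is no net growth.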 Some results are limits rather than exact numbers.

The text below walks through data of PubChem BioAssay (NCI).

Test systems include TK-10 renal; ACHN renal; UACC-62 melanoma; NCI-H460 lung; HL-60(TB) leukemia; T-47D breast; UACC-257 melanoma; SK-MEL-28 melanoma; SN12C renal; NCI-H522 lung.
Experiment in all cases: growth of human tumour cells (NCI), 48 h

Regarding `CCc1cc2c(cc1N1CCC(N3CCOCC3)CC1)C(C)(C)c1[nH]c3cc(C#N)ccc3c1C2=O`, the GI50 in the assay on TK-10 renal is 1660 nM and 1710 nM and 1420 nM; in the assay on ACHN renal, 1920 nM and 1540 nM and 1410 nM; in the assay with UACC-62 melanoma it was 3170 nM and 3000 nM and 2640 nM; with NCI-H460 lung, 1470 nM and 1740 nM and 1680 nM; in the assay with HL-60(TB) leukemia, 1700 nM and 1020 nM and 443 nM; in the assay with T-47D breast, 2200 nM and 1940 nM and 2180 nM. The GI50 is 2300 nM and 3200 nM in the assay on UACC-257 melanoma; 1950 nM and 1870 nM and 2320 nM with SK-MEL-28 melanoma; 2230 nM and 1440 nM and 1550 nM in the assay with SN12C renal; 1170 nM and 1690 nM and 1480 nM with NCI-H522 lung. The TGI in the assay with TK-10 renal was 3.61 µM and 3.95 µM and 3.05 µM; in the assay on ACHN renal, 4.54 µM and 3.35 µM and 4.67 µM; in the assay on UACC-62 melanoma, 18.1 µM and 13.7 µM and > 10 µM; with NCI-H460 lung, 4.03 µM and 4.17 µM and 7.64 µM; in the assay with HL-60(TB) leukemia it was above 100 µM; with T-47D breast it was 10.9 µM and 5.32 µM and > 10 µM. The TGI with UACC-257 melanoma is 21.1 µM and 25.9 µM and > 10 µM; with SK-MEL-28 melanoma it was 4.48 µM and 4.04 µM and 6.75 µM; in the assay with SN12C renal it was 8.69 µM and 6.23 µM and 4.5 µM; in the assay with NCI-H522 lung, 3.81 µM and 4.88 µM and 5.85 µM.
Turning to `CCc1ccc2c(c1)N(CCO)C1=C(C(=O)OC1)C2c1cccc(Cl)c1` (stereo not given), the GI50 is 6690 nM in the assay with TK-10 renal; 1240 nM in the assay on ACHN renal; 537 nM with UACC-62 melanoma; 393 nM in the assay with NCI-H460 lung; 482 nM in the assay with HL-60(TB) leukemia; 583 nM with T-47D breast. For the same compound, the GI50 in the assay on UACC-257 melanoma was 772 nM; with SK-MEL-28 melanoma, 613 nM; with SN12C renal, 2030 nM; in the assay with NCI-H522 lung, 242 nM. Besides, the TGI in the assay on TK-10 renal came to 28.8 µM; with ACHN renal, 31.6 µM; with UACC-62 melanoma, 18.5 µM; in the assay on NCI-H460 lung it was 12.5 µM; in the assay with HL-60(TB) leukemia it was 8.82 µM; with T-47D breast it was 26.4 µM. Also, the TGI in the assay on UACC-257 melanoma came out at 23.6 µM; with SK-MEL-28 melanoma, 17.5 µM; in the assay with SN12C renal, 19 µM; with NCI-H522 lung, 2.76 µM.
For the compound `CCCCCCCCCCCCOC1C(C(CC(=O)N2CCN(c3cccc(C(F)(F)F)c3)CC2)NS(=O)(=O)c2cc(Cl)cc(Cl)c2)OC2OC(C)(C)OC21` (stereo not given), the GI50 with TK-10 renal, in the assay with ACHN renal, in the assay with UACC-62 melanoma, in the assay on NCI-H460 lung, in the assay with HL-60(TB) leukemia and in the assay with T-47D breast was above 100000 nM each time. The GI50 with UACC-257 melanoma, in the assay on SK-MEL-28 melanoma, with SN12C renal and with NCI-H522 lung was above 100000 nM each time. The TGI with TK-10 renal, in the assay with ACHN renal, with UACC-62 melanoma, in the assay with NCI-H460 lung, in the assay on HL-60(TB) leukemia and with T-47D breast was above 100 µM each time. Besides, the TGI with UACC-257 melanoma, in the assay on SK-MEL-28 melanoma, in the assay with SN12C renal and with NCI-H522 lung was above 100 µM each time.
